For this assay, the target named is CFTR-mediated chloride transport in human intestinal epithelial enteroid cells (Homo sapiens, UniProt P13569). The experiment in a line: Membrane potential dye, Enteroid Assay A. It is filed as cell-based. Particulars: Enteroid Assay A; for EC50: read-out: Ent. A EC50. The method, boiled down:
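Membrane potential dye (20 μM methyl oxonol, with 30 μM CaCCinh-A01 and 30 μM Chicago Sky Blue) loaded 25 min at room temperature into ROCK-inhibitor-seeded human enteroid cells. Chloride-free stimulation buffer triggered transport, followed by 15 min fluorescence. % Activity relative to 3 μM/3 μM/300 nM triple-combination control.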

Bounds are passed on as bounds.

Chain of CFTR-mediated chloride transport in human intestinal epithelial enteroid cells (P13569 with tags, fused parts or gaps DEL508-508): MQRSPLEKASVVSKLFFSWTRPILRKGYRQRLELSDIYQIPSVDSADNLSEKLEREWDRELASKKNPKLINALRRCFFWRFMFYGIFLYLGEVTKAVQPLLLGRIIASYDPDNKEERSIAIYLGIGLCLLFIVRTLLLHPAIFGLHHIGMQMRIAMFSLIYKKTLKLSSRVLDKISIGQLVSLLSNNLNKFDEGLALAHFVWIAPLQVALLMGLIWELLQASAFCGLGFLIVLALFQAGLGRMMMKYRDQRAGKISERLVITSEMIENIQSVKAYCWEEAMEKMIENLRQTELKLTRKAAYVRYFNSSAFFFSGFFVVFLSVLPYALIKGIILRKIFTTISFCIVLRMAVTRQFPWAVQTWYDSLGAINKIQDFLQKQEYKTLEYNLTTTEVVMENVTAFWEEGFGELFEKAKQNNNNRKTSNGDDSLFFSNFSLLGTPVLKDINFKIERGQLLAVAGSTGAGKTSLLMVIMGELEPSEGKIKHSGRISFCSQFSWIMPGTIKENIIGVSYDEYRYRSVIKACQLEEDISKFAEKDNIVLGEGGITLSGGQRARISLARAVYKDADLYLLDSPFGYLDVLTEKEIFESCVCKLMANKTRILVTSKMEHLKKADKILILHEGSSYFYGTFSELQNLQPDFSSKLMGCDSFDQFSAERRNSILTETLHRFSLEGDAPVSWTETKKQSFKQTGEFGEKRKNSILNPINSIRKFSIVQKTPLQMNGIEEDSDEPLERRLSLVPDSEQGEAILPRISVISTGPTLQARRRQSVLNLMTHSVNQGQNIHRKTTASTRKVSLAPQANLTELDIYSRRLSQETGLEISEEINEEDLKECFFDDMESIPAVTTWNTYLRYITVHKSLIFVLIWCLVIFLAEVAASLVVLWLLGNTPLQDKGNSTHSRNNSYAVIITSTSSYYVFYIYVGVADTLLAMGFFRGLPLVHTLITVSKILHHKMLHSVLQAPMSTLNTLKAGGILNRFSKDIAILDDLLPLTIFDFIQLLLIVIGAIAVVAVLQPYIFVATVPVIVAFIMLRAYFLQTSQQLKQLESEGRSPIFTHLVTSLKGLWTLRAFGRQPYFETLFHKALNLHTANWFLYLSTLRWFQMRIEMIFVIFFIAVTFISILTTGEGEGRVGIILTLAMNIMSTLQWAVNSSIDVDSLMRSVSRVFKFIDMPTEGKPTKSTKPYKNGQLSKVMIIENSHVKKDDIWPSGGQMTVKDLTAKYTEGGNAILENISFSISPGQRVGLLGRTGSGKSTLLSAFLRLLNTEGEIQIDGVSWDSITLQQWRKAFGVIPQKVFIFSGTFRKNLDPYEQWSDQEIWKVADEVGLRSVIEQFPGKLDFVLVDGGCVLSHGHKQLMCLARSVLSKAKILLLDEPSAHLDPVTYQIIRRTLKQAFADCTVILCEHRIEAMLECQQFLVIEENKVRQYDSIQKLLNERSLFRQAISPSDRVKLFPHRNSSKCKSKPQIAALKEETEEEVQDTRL

Regarding `Cc1cccc(C)c1-c1cc2nc(n1)NS(=O)(=O)c1cccc(c1)C(=O)N1CCN(C3CCCC3)C[C@H](C1)O2` [Compound 6, (16R)-18-cyclopentyl-12-(2,6-dimethylphenyl)-8,8-dioxo-15-oxa-8λ^6-thia-1,9,11,18,22-pentazatetracyclo[14.4.1.13,7.110,14]tricosa-3,5,7(23),10(22),11,13-hexaen-2-one], the “Ent. A Max Activity (%)” value was “+++ (+++ is >600%)” and the EC50 (as a rule, the midpoint of the concentration-response curve) was under 1000 nM.
Regarding `Cc1cccc(C)c1-c1cc2nc(n1)NS(=O)(=O)c1cccc(c1)C(=O)N1CCN(C3CC4(CCCC4)C3)C[C@H](C1)O2` [Compound 8, (16R)-12-(2,6-Dimethylphenyl)-18-{spiro[3.4]octan-2-yl}-15-oxa-8λ^6-thia-1,9,11,18,22-pentaazatetracyclo[14.4.1.13,7.110,14]tricosa-3(23),4,6,10(22),11,13-hexaene-2,8,8-trione], the “Ent. A Max Activity (%)” value is given as “+++ (+++ is >600%)” and the 50% effective concentration (EC50) is under 1000 nM.
Take `CCC(CC)N1CCN2C[C@@H](C1)Oc1cc(-c3c(C)cccc3C)nc(n1)NS(=O)(=O)c1cccc(c1)C2=O` [Compound 11, (16R)-12-(2,6-Dimethylphenyl)-18-(1-ethylpropyl)-8,8-dioxo-15-oxa-8λ^6-thia-1,9,11,18,22-pentazatetracyclo[14.4.1.13,7.110,14]tricosa-3,5,7(23),10,12,14(22)-hexaen-2-one]: the “Ent. A Max Activity (%)” value is given as “+++ (+++ is >600%)” and the EC50 was under 1000 nM.
With `Cc1cccc(C)c1-c1cc2nc(n1)NS(=O)(=O)c1cccc(c1)C(=O)N1CCN(C3CCC4(CCCCC4)CC3)C[C@H](C1)O2` [Compound 12], the “Ent. A Max Activity (%)” value is reported as “+++ (+++ is >600%)” and the 50% effective concentration (EC50) is under 1000 nM.
In the same order, the values of `Cc1cccc(C)c1-c1cc2nc(n1)NS(=O)(=O)c1cccc(c1)C(=O)N1CCN(C3CCC4(CC3)CC4)C[C@H](C1)O2` [Compound 13] are “+++ (+++ is >600%)” and under 1000 nM.
In the same order, the values of `Cc1cccc(C)c1-c1cc2nc(n1)NS(=O)(=O)c1cccc(c1)C(=O)N1CCN(CC3(C)CCOCC3)C[C@H](C1)O2` [Compound 14] are “+++ (+++ is >600%)” and under 1000 nM.
With `Cc1cccc(C)c1-c1cc2nc(n1)NS(=O)(=O)c1cccc(c1)C(=O)N1CCN(C3CCC4CC43)C[C@H](C1)O2` (stereo partly shown) [Compound 15], the “Ent. A Max Activity (%)” value is on record as “+++ (+++ is >600%)” and the EC50 is under 1000 nM.
With `Cc1cccc(C)c1-c1cc2nc(n1)NS(=O)(=O)c1cccc(c1)C(=O)N1CCN(Cc3ccc(C(C)(C)C)cc3)C[C@H](C1)O2` [Compound 16], the “Ent. A Max Activity (%)” value is listed as “+++ (+++ is >600%)” and the EC50 is under 1000 nM.
On the same counts, the results for `Cc1cccc(C)c1-c1cc2nc(n1)NS(=O)(=O)c1cccc(c1)C(=O)N1CCN(CC3C4(CC4)C34CC4)C[C@H](C1)O2` [Compound 17] are “+++ (+++ is >600%)” and under 1000 nM.
`Cc1cccc(C)c1-c1cc2nc(n1)NS(=O)(=O)c1cccc(c1)C(=O)N1CCN(CCC3C4(CC4)C34CC4)C[C@H](C1)O2` [Compound 18]: the “Ent. A Max Activity (%)” value was “+ (+ is <30%)” and the EC50 fell in the range of 1000 to 3000 nM.
On to `Cc1cccc(C)c1-c1cc2nc(n1)NS(=O)(=O)c1cccc(c1)C(=O)N1CCN(CC(C)(C)C)C[C@H](C1)O2` [Compound 19], for which the “Ent. A Max Activity (%)” value is given as “+++ (+++ is >600%)” and the EC50 was under 1000 nM.
Consider `Cc1cccc(C)c1-c1cc2nc(n1)NS(=O)(=O)c1cccc(c1)C(=O)N1CCN(C3C(C)(C)CC3(C)C)C[C@H](C1)O2` [Compound 20], for which the “Ent. A Max Activity (%)” value is “+++ (+++ is >600%)” and the EC50 was under 1000 nM.
On to `Cc1cccc(C)c1-c1cc2nc(n1)NS(=O)(=O)c1cccc(c1)C(=O)N1CCN(C3CC(F)(F)C3)C[C@H](C1)O2` [Compound 21], for which the “Ent. A Max Activity (%)” value was “+++ (+++ is >600%)” and the EC50 was under 1000 nM.
For `Cc1cccc(C)c1-c1cc2nc(n1)NS(=O)(=O)c1cccc(c1)C(=O)N1CCN(C3CCCCC3)C[C@H](C1)O2` [Compound 22], the “Ent. A Max Activity (%)” value is “+++ (+++ is >600%)” and the EC50 is under 1000 nM.
In the same order, the values of `Cc1cccc(C)c1-c1cc2nc(n1)NS(=O)(=O)c1cccc(c1)C(=O)N1CCN(C3CC4(CC4)C3)C[C@H](C1)O2` [Compound 23] are “+++ (+++ is >600%)” and under 1000 nM.
On to `Cc1cccc(C)c1-c1cc2nc(n1)NS(=O)(=O)c1cccc(c1)C(=O)N1CCN(C3CC(C)(C)C3)C[C@H](C1)O2` [Compound 24], for which the “Ent. A Max Activity (%)” value was “++ (++ is 30-60%)” and the EC50 was under 1000 nM.
In the same order, the values of `Cc1cccc(C)c1-c1cc2nc(n1)NS(=O)(=O)c1cccc(c1)C(=O)N1CCN(C3CC4(COC4)C3)C[C@H](C1)O2` [Compound 25] are “++ (++ is 30-60%)” and 3000 to 30000 nM.
Turning to `Cc1cccc(C)c1-c1cc2nc(n1)NS(=O)(=O)c1cccc(c1)C(=O)N1CCN(C3CC4(CCC4)C3)C[C@H](C1)O2` [Compound 26], the “Ent. A Max Activity (%)” value was “+++ (+++ is >600%)” and the EC50 was under 1000 nM.
As for `Cc1cccc(C)c1-c1cc2nc(n1)NS(=O)(=O)c1cccc(c1)C(=O)N1CCN(C3CCC3)C[C@H](C1)O2` [Compound 27], the “Ent. A Max Activity (%)” value was “++ (++ is 30-60%)” and the EC50 was under 1000 nM.
Take `Cc1cccc(C)c1-c1cc2nc(n1)NS(=O)(=O)c1cccc(c1)C(=O)N1CCN(C3CCOCC3)C[C@H](C1)O2` [Compound 28]: the “Ent. A Max Activity (%)” value is listed as “+++ (+++ is >600%)” and the EC50 lay in the range of 3000 to 30000 nM.
For the molecule `Cc1cccc(C)c1-c1cc2nc(n1)NS(=O)(=O)c1cccc(c1)C(=O)N1CCN(CC3CC(C(=O)O)C3)C[C@H](C1)O2` (stereo partly shown) [Compound 29], the “Ent. A Max Activity (%)” value is reported as “+++ (+++ is >600%)” and the EC50 fell in the range of 3000 to 30000 nM.
In the case of `Cc1cccc(C)c1-c1cc2nc(n1)NS(=O)(=O)c1cccc(c1)C(=O)N1CCN(CC3CCOC3)C[C@H](C1)O2` (stereo partly shown) [Compound 30], the “Ent. A Max Activity (%)” value was “+++ (+++ is >600%)” and the EC50 is 1000 to 3000 nM.
Turning to `CCCN1CCN2C[C@@H](C1)Oc1cc(-c3c(C)cccc3C)nc(n1)NS(=O)(=O)c1cccc(c1)C2=O` [Compound 31], the “Ent. A Max Activity (%)” value is reported as “+++ (+++ is >600%)” and the concentration for a half-maximal effect (EC50) is under 1000 nM.
With `CCCCN1CCN2C[C@@H](C1)Oc1cc(-c3c(C)cccc3C)nc(n1)NS(=O)(=O)c1cccc(c1)C2=O` [Compound 32], the “Ent. A Max Activity (%)” value is given as “+++ (+++ is >600%)” and the EC50 was under 1000 nM.
For `Cc1cccc(C)c1-c1cc2nc(n1)NS(=O)(=O)c1cccc(c1)C(=O)N1CCN(CCCCO)C[C@H](C1)O2` [Compound 33], the “Ent. A Max Activity (%)” value is on record as “+++ (+++ is >600%)” and the EC50 lay in the range of 3000 to 30000 nM.
Consider `CCOC(=O)C1CC1CN1CCN2C[C@@H](C1)Oc1cc(-c3c(C)cccc3C)nc(n1)NS(=O)(=O)c1cccc(c1)C2=O` (stereo partly shown) [Compound 34], for which the “Ent. A Max Activity (%)” value is reported as “+++ (+++ is >600%)” and the half-maximal effective concentration (EC50) is under 1000 nM.

The values are drawn from patent US20240018161A1, “MODULATORS OF CYSTIC FIBROSIS TRANSMEMBRANE CONDUCTANCE REGULATOR” (VERTEX PHARMACEUTICALS INCORPORATED, priority 2020, published 2024).
